Results reported in patent US10526320B2, “Pyrrolidine derivatives as PPAR agonists” (GUANGDONG RAYNOVENT BIOTECH CO., LTD., priority 2016, dated 2020).

Each compound was assayed against T1, PPAR Alpha (Homo sapiens, UniProt Q07869) (assay: PathHunter NHR protein interaction / nuclear translocation agonist test, PPAR Alpha). Details: not given.
T1 sequence (Q07869 1-468): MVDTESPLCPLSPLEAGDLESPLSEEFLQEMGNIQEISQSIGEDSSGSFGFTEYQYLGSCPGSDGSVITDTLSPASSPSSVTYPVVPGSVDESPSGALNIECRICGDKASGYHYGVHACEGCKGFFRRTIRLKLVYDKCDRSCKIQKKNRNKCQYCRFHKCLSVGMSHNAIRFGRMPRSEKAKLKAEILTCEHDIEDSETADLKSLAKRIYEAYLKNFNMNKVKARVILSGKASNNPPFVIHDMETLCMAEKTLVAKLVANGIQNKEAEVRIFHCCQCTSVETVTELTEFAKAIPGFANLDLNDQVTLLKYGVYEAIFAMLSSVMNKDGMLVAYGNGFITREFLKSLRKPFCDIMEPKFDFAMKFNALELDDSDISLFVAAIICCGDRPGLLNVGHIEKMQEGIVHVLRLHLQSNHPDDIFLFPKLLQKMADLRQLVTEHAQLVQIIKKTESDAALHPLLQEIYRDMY
Type: cell-based
For `CSc1ccc(C(=O)C2CN(C(=O)Oc3ccc(Cl)cc3)CC2c2cccc(OC(C)(C)C(=O)O)c2)cc1` (single isomer, unassigned) [Compound 34], the “PPAR Alpha Maximum Activation Response %” value was “I (key: 100% ≥ I ≥ 80%; 80% ≥ II ≥ 50%; III < 50%)”.

Same assay, conditions: PPAR Alpha EC50 nM
For `CSc1ccc(C(=O)[C@H]2CN(C)C[C@@H]2CCc2cc(C)c(OC(C)(C)C(=O)O)c(C)c2)cc1` (racemic) [Compound 55], the EC50 was over 250 nM.

Same assay, conditions: agonist mode; read-out: PPAR Alpha EC50
For `CSc1ccc(C(=O)C2CN(C(=O)Oc3ccccc3)CC2CCc2ccc(OC(C)(C)C(=O)O)c(C)c2)cc1` (single isomer, unassigned) [Compound 81], the EC50 was under 100 nM.
For `CSc1ccc(C(=O)C2CN(C(=O)Oc3ccccc3)CC2Cc2ccc(OC(C)(C)C(=O)O)c(C)c2)cc1` (single isomer, unassigned) [Compound 77], the EC50 was 150 to 200 nM.
`Cc1cc(CCC2CN(C(=O)Oc3ccccc3)CC2C(=O)c2ccc(Cl)cc2)cc(C)c1OC(C)(C)C(=O)O` (single isomer, unassigned) [Compound 65] was tested, and the EC50 was under 100 nM.
With `Cc1cc(CCC2CN(C(=O)Oc3ccccc3)CC2C(=O)c2ccc(F)cc2)cc(C)c1OC(C)(C)C(=O)O` (single isomer, unassigned) [Compound 63] the EC50 was under 100 nM.
`CSc1ccc(C(=O)C2CN(C(=O)Oc3ccc(Cl)cc3)CC2c2cccc(OC(C)(C)C(=O)O)c2)cc1` (single isomer, unassigned) [Compound 34] showed an EC50 of under 100 nM.

Same assay, conditions: read-out: PPAR Alpha Maximum Activation Response %
With `CSc1ccc(C(=O)C2CN(C(=O)Oc3ccccc3)CC2CCc2ccc(OC(C)(C)C(=O)O)c(C)c2)cc1` (single isomer, unassigned) [Compound 81] the Emax was 80 to 100%.
Compound `CSc1ccc(C(=O)C2CN(C(=O)Oc3ccccc3)CC2Cc2ccc(OC(C)(C)C(=O)O)c(C)c2)cc1` (single isomer, unassigned) [Compound 77] has an Emax of 80 to 100%.
For `Cc1cc(CCC2CN(C(=O)Oc3ccccc3)CC2C(=O)c2ccc(F)cc2)cc(C)c1OC(C)(C)C(=O)O` (single isomer, unassigned) [Compound 63], the Emax was 80 to 100%.
Compound `CSc1ccc(C(=O)[C@H]2CN(C)C[C@@H]2CCc2cc(C)c(OC(C)(C)C(=O)O)c(C)c2)cc1` (racemic) [Compound 55] has an Emax of under 50%.

Each compound was assayed against T2, PPAR Delta (Homo sapiens, UniProt Q03181) (assay: PathHunter NHR protein interaction / nuclear translocation agonist test, PPAR Delta). Details: not given.
T2 sequence (Q03181 1-441): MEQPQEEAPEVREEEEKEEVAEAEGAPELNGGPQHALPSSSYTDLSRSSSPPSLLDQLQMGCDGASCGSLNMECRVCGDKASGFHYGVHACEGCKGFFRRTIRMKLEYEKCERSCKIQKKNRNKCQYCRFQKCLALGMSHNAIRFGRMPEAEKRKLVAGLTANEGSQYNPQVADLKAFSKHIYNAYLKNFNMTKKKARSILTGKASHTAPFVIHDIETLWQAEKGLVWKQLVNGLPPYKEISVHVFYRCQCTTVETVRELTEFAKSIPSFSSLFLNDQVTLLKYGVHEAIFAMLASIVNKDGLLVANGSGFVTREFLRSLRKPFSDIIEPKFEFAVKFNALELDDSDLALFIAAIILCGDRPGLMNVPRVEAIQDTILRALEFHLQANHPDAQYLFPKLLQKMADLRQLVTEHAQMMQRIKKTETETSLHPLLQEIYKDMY
Type: cell-based
In the case of `CSc1ccc(C(=O)C2CN(C(=O)Oc3ccc(Cl)cc3)CC2c2cccc(OC(C)(C)C(=O)O)c2)cc1` (single isomer, unassigned) [Compound 34], the “PPAR Delta Maximum Activation Response %” value is reported as “III (key: 100% ≥ I ≥ 80%; 80% ≥ II ≥ 50%; III < 50%)”.

Same assay, conditions: PPAR Delta EC50 nM
Work on `CSc1ccc(C(=O)[C@H]2CN(C)C[C@@H]2CCc2cc(C)c(OC(C)(C)C(=O)O)c(C)c2)cc1` (racemic) [Compound 55] yielded an EC50 of 200 to 250 nM.

Same assay, conditions: agonist mode; read-out: PPAR Delta EC50
Work on `CSc1ccc(C(=O)C2CN(C(=O)Oc3ccccc3)CC2CCc2ccc(OC(C)(C)C(=O)O)c(C)c2)cc1` (single isomer, unassigned) [Compound 81] yielded an EC50 of 100 to 150 nM.
`CSc1ccc(C(=O)C2CN(C(=O)Oc3ccccc3)CC2Cc2ccc(OC(C)(C)C(=O)O)c(C)c2)cc1` (single isomer, unassigned) [Compound 77] gave an EC50 of 150 to 200 nM.
`Cc1cc(CCC2CN(C(=O)Oc3ccccc3)CC2C(=O)c2ccc(Cl)cc2)cc(C)c1OC(C)(C)C(=O)O` (single isomer, unassigned) [Compound 65] was tested, and the EC50 was under 100 nM.
Compound `Cc1cc(CCC2CN(C(=O)Oc3ccccc3)CC2C(=O)c2ccc(F)cc2)cc(C)c1OC(C)(C)C(=O)O` (single isomer, unassigned) [Compound 63] has an EC50 of under 100 nM.
Compound `CSc1ccc(C(=O)C2CN(C(=O)Oc3ccc(Cl)cc3)CC2c2cccc(OC(C)(C)C(=O)O)c2)cc1` (single isomer, unassigned) [Compound 34] has an EC50 of over 250 nM.

Same assay, conditions: read-out: PPAR Delta Maximum Activation Response %
`Cc1cc(CCC2CN(C(=O)Oc3ccccc3)CC2C(=O)c2ccc(Cl)cc2)cc(C)c1OC(C)(C)C(=O)O` (single isomer, unassigned) [Compound 65] showed an Emax of 80 to 100%.
`CSc1ccc(C(=O)[C@H]2CN(C)C[C@@H]2CCc2cc(C)c(OC(C)(C)C(=O)O)c(C)c2)cc1` (racemic) [Compound 55] gave an Emax of 50 to 80%.

Same assay, conditions: relative to known PPARδ agonist L-165,041 = 100%; read-out: PPAR Delta Maximum Activation Response %
With `CSc1ccc(C(=O)C2CN(C(=O)Oc3ccccc3)CC2CCc2ccc(OC(C)(C)C(=O)O)c(C)c2)cc1` (single isomer, unassigned) [Compound 81] the Emax was 80 to 100%.
Work on `CSc1ccc(C(=O)C2CN(C(=O)Oc3ccccc3)CC2Cc2ccc(OC(C)(C)C(=O)O)c(C)c2)cc1` (single isomer, unassigned) [Compound 77] yielded an Emax of 80 to 100%.
`Cc1cc(CCC2CN(C(=O)Oc3ccccc3)CC2C(=O)c2ccc(F)cc2)cc(C)c1OC(C)(C)C(=O)O` (single isomer, unassigned) [Compound 63] gave an Emax of 80 to 100%.

The compounds below were run against T3, PPAR Gamma (Homo sapiens, UniProt P37231) (assay: PathHunter NHR protein interaction / nuclear translocation agonist test, PPAR Gamma). Details: PPAR Gamma EC50 nM.
T3 sequence (P37231 1-505): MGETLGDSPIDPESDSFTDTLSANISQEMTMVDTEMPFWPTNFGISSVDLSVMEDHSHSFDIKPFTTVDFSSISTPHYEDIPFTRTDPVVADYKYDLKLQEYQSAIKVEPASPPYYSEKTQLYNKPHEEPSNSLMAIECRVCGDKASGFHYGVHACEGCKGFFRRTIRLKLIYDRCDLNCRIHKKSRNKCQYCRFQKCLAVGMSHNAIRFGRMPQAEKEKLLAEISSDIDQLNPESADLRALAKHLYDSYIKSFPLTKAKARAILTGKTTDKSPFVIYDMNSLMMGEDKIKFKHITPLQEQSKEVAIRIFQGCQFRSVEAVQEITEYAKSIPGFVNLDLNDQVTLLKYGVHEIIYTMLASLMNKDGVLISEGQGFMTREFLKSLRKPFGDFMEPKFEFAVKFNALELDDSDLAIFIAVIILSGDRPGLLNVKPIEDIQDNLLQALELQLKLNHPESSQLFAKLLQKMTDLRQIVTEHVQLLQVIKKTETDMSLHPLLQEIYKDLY
Type: cell-based
Compound `CSc1ccc(C(=O)[C@H]2CN(C)C[C@@H]2CCc2cc(C)c(OC(C)(C)C(=O)O)c(C)c2)cc1` (racemic) [Compound 55] has an EC50 of over 250 nM.

Same assay, conditions: agonist mode; read-out: PPAR Gamma EC50
Work on `CSc1ccc(C(=O)C2CN(C(=O)Oc3ccccc3)CC2CCc2ccc(OC(C)(C)C(=O)O)c(C)c2)cc1` (single isomer, unassigned) [Compound 81] yielded an EC50 of 200 to 250 nM.
For `CSc1ccc(C(=O)C2CN(C(=O)Oc3ccccc3)CC2Cc2ccc(OC(C)(C)C(=O)O)c(C)c2)cc1` (single isomer, unassigned) [Compound 77], the EC50 was over 250 nM.
With `Cc1cc(CCC2CN(C(=O)Oc3ccccc3)CC2C(=O)c2ccc(Cl)cc2)cc(C)c1OC(C)(C)C(=O)O` (single isomer, unassigned) [Compound 65] the EC50 was 200 to 250 nM.
In the case of `Cc1cc(CCC2CN(C(=O)Oc3ccccc3)CC2C(=O)c2ccc(F)cc2)cc(C)c1OC(C)(C)C(=O)O` (single isomer, unassigned) [Compound 63], the EC50 is reported as 200 to 250 nM.
`CSc1ccc(C(=O)C2CN(C(=O)Oc3ccc(Cl)cc3)CC2c2cccc(OC(C)(C)C(=O)O)c2)cc1` (single isomer, unassigned) [Compound 34] was tested, and the EC50 was over 250 nM.

Same assay, conditions: read-out: PPAR Gamma Maximum Activation Response %
`CSc1ccc(C(=O)C2CN(C(=O)Oc3ccc(Cl)cc3)CC2c2cccc(OC(C)(C)C(=O)O)c2)cc1` (single isomer, unassigned) [Compound 34] showed an Emax of 80 to 100%.
With `CSc1ccc(C(=O)[C@H]2CN(C)C[C@@H]2CCc2cc(C)c(OC(C)(C)C(=O)O)c(C)c2)cc1` (racemic) [Compound 55] the Emax was under 50%.

Same assay, conditions: relative to known PPARγ agonist Troglitazone = 100%; read-out: PPAR Gamma Maximum Activation Response %
`CSc1ccc(C(=O)C2CN(C(=O)Oc3ccccc3)CC2CCc2ccc(OC(C)(C)C(=O)O)c(C)c2)cc1` (single isomer, unassigned) [Compound 81] gave an Emax of 80 to 100%.
`CSc1ccc(C(=O)C2CN(C(=O)Oc3ccccc3)CC2Cc2ccc(OC(C)(C)C(=O)O)c(C)c2)cc1` (single isomer, unassigned) [Compound 77] gave an Emax of 80 to 100%.
Compound `Cc1cc(CCC2CN(C(=O)Oc3ccccc3)CC2C(=O)c2ccc(F)cc2)cc(C)c1OC(C)(C)C(=O)O` (single isomer, unassigned) [Compound 63] has an Emax of 80 to 100%.
